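Following 48 hours of exposure in 96-well plates, responses at five concentrations were used to interpolate endpoints linearly. At the TGI there is no net growth.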
What was measured:
Assay in all cases: DTP human tumour cell line panel, 48 h
[1] = tested on: 786-0 renal
[2] = tested on: A498 renal
[3] = tested on: A549 NSCLC
[4] = tested on: ACHN renal
[5] = tested on: BT-549 breast
[6] = tested on: CAKI-1 renal
[7] = tested on: CCRF-CEM leukemia
[8] = tested on: COLO 205 colon
[9] = tested on: DU-145 prostate
[10] = tested on: EKVX NSCLC
[11] = tested on: HCC-2998 colon
[12] = tested on: HCT-116 colon
[13] = tested on: HCT-15 colon
[14] = tested on: HL-60(TB) leukemia
[15] = tested on: HOP-62 NSCLC
[16] = tested on: HOP-92 NSCLC
[17] = tested on: HS 578T breast
[18] = tested on: HT29 colon
[19] = tested on: IGROV1 ovarian
[20] = tested on: K-562 leukemia
[21] = tested on: KM12 colon
[22] = tested on: LOX IMVI melanoma
[23] = tested on: M14 melanoma
[24] = tested on: MALME-3M melanoma
[25] = tested on: MCF7 breast
[26] = tested on: MDA-MB-231 breast
[27] = tested on: MDA-MB-435
[28] = tested on: MDA-N
[29] = tested on: MOLT-4 leukemia
[30] = tested on: NCI-H226 lung
[31] = tested on: NCI-H23 lung
[32] = tested on: NCI-H460 lung
[33] = tested on: NCI-H522 lung
[34] = tested on: NCI/ADR-RES ovarian
[35] = tested on: OVCAR-3 ovarian
[36] = tested on: OVCAR-4 ovarian
[37] = tested on: OVCAR-5 ovarian
[38] = tested on: OVCAR-8 ovarian
[39] = tested on: RXF 393 renal
[40] = tested on: SF-268 CNS
[41] = tested on: SF-295 CNS
[42] = tested on: SF-539 CNS
[43] = tested on: SK-MEL-2 melanoma
[44] = tested on: SK-MEL-28 melanoma
[45] = tested on: SK-MEL-5 melanoma
[46] = tested on: SK-OV-3 ovarian
[47] = tested on: SN12C renal
[48] = tested on: SNB-19 CNS
[49] = tested on: SNB-75 CNS
[50] = tested on: SR leukemia
[51] = tested on: SW-620 colon
[52] = tested on: T-47D breast
[53] = tested on: TK-10 renal
[54] = tested on: U251 CNS
[55] = tested on: UACC-257 melanoma
[56] = tested on: UACC-62 melanoma
[57] = tested on: UO-31 renal

In the case of `COc1ccc(Nc2[nH]c(C(C)=O)c(N)c2C(=S)Nc2ccccc2)cc1`, the TGI [1] is reported as over 100 µM, the TGI [2] is reported as over 100 µM and the TGI [3] is reported as over 100 µM. The TGI [4] was over 100 µM, the TGI [5] was over 100 µM and the TGI [6] was over 100 µM. The TGI [7] was over 100 µM, the TGI [8] was 48.1 µM and the TGI [9] was over 100 µM. The TGI [10] was over 100 µM, the TGI [11] was over 100 µM and the TGI [12] was over 100 µM. The TGI [13] was over 100 µM, the TGI [14] was over 100 µM and the TGI [15] was over 100 µM. For the same molecule, the TGI [16] was over 100 µM, the TGI [17] was over 100 µM and the TGI [18] was over 100 µM. For the same molecule, the TGI [19] was over 100 µM, the TGI [20] was over 100 µM and the TGI [21] was over 100 µM. It also gave a TGI [22] of over 100 µM, a TGI [23] of 69.3 µM and a TGI [24] of over 100 µM. For the same molecule, the TGI [25] was 68.6 µM, the TGI [26] was over 100 µM and the TGI [27] was over 100 µM. It also gave a TGI [28] of over 100 µM, a TGI [29] of over 100 µM and a TGI [30] of over 100 µM. It also gave a TGI [31] of over 100 µM, a TGI [32] of over 100 µM and a TGI [33] of over 100 µM. For the same molecule, the TGI [34] was over 100 µM, the TGI [35] was over 100 µM and the TGI [36] was over 100 µM. It also gave a TGI [37] of over 100 µM, a TGI [38] of over 100 µM and a TGI [39] of 77.7 µM. It also gave a TGI [40] of over 100 µM, a TGI [41] of over 100 µM and a TGI [42] of over 100 µM. For the same molecule, the TGI [43] was over 100 µM, the TGI [44] was over 100 µM and the TGI [45] was over 100 µM. It also gave a TGI [46] of over 100 µM, a TGI [47] of over 100 µM and a TGI [48] of over 100 µM. For the same molecule, the TGI [49] was over 100 µM, the TGI [50] was over 100 µM and the TGI [51] was over 100 µM. It also gave a TGI [52] of over 100 µM, a TGI [53] of over 100 µM and a TGI [54] of over 100 µM. For the same molecule, the TGI [55] was over 100 µM, the TGI [56] was 95.7 µM and the TGI [57] was over 100 µM.

Reference: PubChem BioAssay (NCI)
